Test system: EV71 replication in RD cells
Experiment: anti-VP1 western blot of EV71-infected RD cells (VP1/vimentin ratio normalized to non-treated infected cells)
Type: cell-based, enterovirus type 71 (EV71 strain 4643/TW/1998)
Description: Antibodies—Used antibodies included rabbit anti-VP1 (GTX70007, 1:2000, GeneTex), mouse anti-vimentin (sc-6260, 1:1000, Santa Cruz).
Cell lines, viruses and viral infection—RD (Human rhabdomyosarcoma, ATCC® CCL-136™) cells were grown in Dulbecco's modified Eagle's medium (Sigma, USA) containing 10% fetal bovine serum (Invitrogen, USA), at 5% CO2 and 37° C. EV71 strain 4643/TW/1998 (GeneBank accession number 1N544418.1) was kindly provided by Dr. Lih-Hwa Hwang at National Yang-Ming University, Taiwan. Viruses were added to RD cells which were cultured in DMEM containing 2% FBS. The newly generated viruses were titrated by cytopathology assay. For viral infection, cells were seeded at 80% confluency in 6-well dishes and grown overnight. Before challenge with viruses of 5 multiplicity of infection (MOI), old medium was replaced with serum-free medium. After 1 h adsorption of viruses, infected cells were cultured in DMEM with 10% FBS.
Western blotting—Protein extracted from RD cells were resolved with electrophoresis. Protein were blotted onto a nitrocellulose membrane eletrophoretically and incubated with indicated antibodies. The immunoreactive bands were visualized with LAS-4000 (FUJIFLIM).

[1] = single compound at 0.005 μM (so in the source), RD cells, EV71 MOI 5
[2] = single compound at 5 μM, RD cells, EV71 MOI 5

| Structure (SMILES) | VP1 expression relative to non-treated infected cells [1] | anti-EV71 effect (VP1 expression), in words (single compound at 0.05 μM) | anti-EV71 effect (VP1 expression), in words (single compound at 5 μM) | VP1 expression relative to non-treated infected cells [2] | also measured |
| --- | --- | --- | --- | --- | --- |
| CC(=O)OC[C@H]1O[C@@H]([S-])[C@H](OC(C)=O)[C@@H](OC(C)=O)[C@@H]1OC(C)=O.CCP(CC)CC.[Au+] [auranofin] | 0.9 | minimal effects | strong anti-EV71 | 0.05 | – |
| O=C(Nc1ccc([N+](=O)[O-])cc1Cl)c1cc(Cl)ccc1O [niclosamide] | 0.9 | minimal effects | strong anti-EV71 | 0.2 | – |
| CC[C@H]1CN2CCc3cc(OC)c(OC)cc3[C@@H]2C[C@@H]1C[C@H]1NCCc2cc(OC)c(OC)cc21 [emetine] | – | VP1 expression returning | – | – | anti-EV71 effect (VP1 expression), in words (single compound at 0.5-5 μM): strong blockage of EV71 expression |
| CNCC[C@H](Oc1ccc(C(F)(F)F)cc1)c1ccccc1 [fluoxetine, S-(+)-fluoxetine] | – | – | – | – | VP1 expression relative to non-treated infected cells (single compound, all tested concentrations (5, 0.5, 0.05 μM)): 0.9-1.0 |
| C[C@@H]1O[C@@H](O[C@H]2C[C@@H](O)[C@]3(CO)[C@H]4[C@H](O)C[C@]5(C)[C@@H](C6=CC(=O)OC6)CC[C@]5(O)[C@@H]4CC[C@]3(O)C2)[C@H](O)[C@H](O)[C@H]1O [ouabain] | – | – | – | – | anti-EV71 effect (VP1 expression), in words (single compound at 0.005 μM): VP1 expression returning; anti-EV71 effect (VP1 expression), in words (single compound at 0.05-5 μM): strong blockage of EV71 expression |

Source: US10548915B2, “Combination therapy for EV71 infection” (SUN JET BIOTECHNOLOGY INC., priority 2015, dated 2020)
